Results on 3 molecules are retold here after US8999891B2, “Method for controlling weeds in turf” (Dow AgroSciences LLC, priority 2013, dated 2015).

In one assay the test system is Ground Ivy (GLEHE). The experiment in a line: Field study in turf, average % weed control. Format: in vivo, Glechoma hederacea. The text has this:
(§1) Replicated applications were made to small plots (i.e. 5′×5′, 3′×10′) using a CO2 backpack sprayer. Florasulam SC (EF-1343), fluoroxypyr (Starane® Ultra) and 2,4-D (DMA® 4) are produced by Dow AgroSciences LLC, Indianapolis, Ind. Applications at each site were made at typical postemergent herbicide timing for that particular study location. Applications were generally timed for peak dandelion bloom in the northern cool-season turf market and throughout the year in the warm-season turf market where winter and summer annual and perennial weeds are targeted. Weed control evaluations were made as percent weed cover per plot and converted to percent control based on weed levels in the untreated control. Evaluations were made at various timing after application for eight to ten weeks.
(§2) [formula] A=observed efficacy of a first active ingredient at the same concentration as used in the mixture. B=observed efficacy of a second active ingredient B at the same concentration as used in the mixture. C=observed efficacy of a third active ingredient C at the same concentration as used in the mixture. The following abbreviations are used in the tables: g ai/ha=grams active ingredient per hectare g ae/ha=grams acid equivalent per hectare DAA=days after application.

A further assay concerns White Cover (TRFRE). The assay can be described thus: Field study in turf, average % weed control. Format: in vivo, Trifolium repens. The conditions noted are these: 62 DAA, florasulam 5.2 g ai/ha, fluroxypyr 52.9 g ae/ha, 2,4-D 520 g ae/ha, alone or in the mixture.
Excerpt: as §1, §2

The next assay deals with White Clover (TRFRE). The assay can be described thus: Greenhouse post-emergence weed control, visual percent control. The conditions noted are these: 1 week after treatment, florasulam 0.001 g ai/ha, fluroxypyr 0.01 g ae/ha, 2,4-D 0.11 g ae/ha, alone or in the mixture, 0 = no control, 100 = complete kill. It counts as in vivo, Trifolium repens.
Excerpt: Studies were applied post-emergence to broadleaf weeds reared from seed in 5″ square pots in 80% mineral/20% grit field soil. Stage of growth of species at application: EPHSU in the 3 to 5 leaf stage and TRFRE in the 3rd tri-foliate stage. Post-emergence trial design was a replicated block, one species per pot, 4 replicate pots per treatment. Post-emergence applications were made to the pot with a tracksprayer calibrated to 187 liters per hectare (L/ha), 40 pounds per square inch (PSI) at 1.9 miles per hour (mph) using an 8003E Teejet nozzle covering both soil and foliage. Trial was sub-irrigated daily. Active weed growth was maintained throughout the study period. Weed control of each species in the post-emergence study was assessed at 1, 2 and 3 weeks after treatment. Control was determined visually by comparing treated and untreated pots and scored on a 0 to 100 percent scale where 0 corresponds to no control and 100 corresponds to complete kill.
In the foregoing examples, the following equation was used to calculate the expected activity of mixtures containing three herbicidal active ingredients:
as §2

A further assay concerns Dandelion (TAROF). The assay can be described thus: Field study in turf, average % weed control. The conditions noted are these: 55 DAA, florasulam 5.2 g ai/ha, fluroxypyr 52.9 g ae/ha, 2,4-D 520 g ae/ha, alone or in the mixture. It counts as in vivo, Taraxacum officinale.
Excerpt: as §1, §2

Setting [1] is: 28 DAA, florasulam 2.3 g ai/ha, fluroxypyr 26.5 g ae/ha, 2,4-D 260.6 g ae/ha alone (260.0 in the mixture).
Setting [2] is: 56 DAA, florasulam 5.2 g ai/ha, fluroxypyr 52.9 g ae/ha, 2,4-D 520 g ae/ha, alone or in the mixture.

`COc1ncc(F)c2nc(S(=O)(=O)Nc3c(F)cccc3F)nn12` [Florasulam, 2′,6′,8-trifluoro-5-methoxy[1,2,4]triazolo[1,5-c]pyrimidine-2-sulfonanilide]: the “Observed Average % Weed Control” value in the assay on Ground Ivy (GLEHE) (setting [1]) is reported as 0.0%; in the assay on Ground Ivy (GLEHE) (setting [2]) it was 0.0%; with White Cover (TRFRE) it was 23.8%; in the assay with Dandelion (TAROF), 25.0%. Also, the Observed percent control in the assay on White Clover (TRFRE) is 10.3%.
As to `O=C(O)COc1ccc(Cl)cc1Cl` [2,4-D, (2,4-dichlorophenoxy)acetic acid], the “Observed Average % Weed Control” value in the assay with Ground Ivy (GLEHE) (setting [1]) is given as 41.0%; in the assay with Ground Ivy (GLEHE) (setting [2]) it was 41.7%; in the assay on White Cover (TRFRE), 20.0%; with Dandelion (TAROF) it was 45.6%. Besides, the Observed percent control in the assay on White Clover (TRFRE) is recorded as 1.7%.
The matching figures for `Nc1c(Cl)c(F)nc(OCC(=O)O)c1Cl` [Fluroxypyr, [(4-amino-3,5-dichloro-6-fluoro-2-pyridinyl)oxy]acetic acid]: 0.0%, 0.0%, 31.3%, 14.3% and 35%.
